Legend:
Test in all cases: Drug affinity chromatography with c-ponatinib and LC-MS/MS (ponatinib interactome)
Assay type in all cases: binding
[1] = target: T1, proteins of U2OS cell lysate (Homo sapiens, UniProt P07305); conditions: H1F0, Histone H1.0
T1 construct: Proteins enriched by c-ponatinib from U2OS cell lysate; endogenous in cells; host or cells: U2OS cell lysate
Method in brief: (§1)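 U2OS cell lysate in NP-40 lysis buffer (2 mg protein per pulldown) was incubated with amine-derivatized NHS beads for 2 h at 4 °C. Bound proteins were washed, eluted with 100 mM formic acid, reduced, alkylated and trypsin-digested, then identified by nano-UPLC–MS/MS on Orbitrap instruments with a 60 min gradient.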

[2] = target: T2, proteins of U2OS cell lysate (Homo sapiens, UniProt P49792); conditions: RANBP2, E3 SUMO-protein ligase RanBP2
T2 construct: Proteins enriched by c-ponatinib from U2OS cell lysate; endogenous in cells; host or cells: U2OS cell lysate
Method in brief: as §1

[3] = target: T3, proteins of U2OS cell lysate (Homo sapiens, UniProt P78527); conditions: PRKDC, DNA-dependent protein kinase catalytic subunit
T3 construct: Proteins enriched by c-ponatinib from U2OS cell lysate; endogenous in cells; host or cells: U2OS cell lysate
Method in brief: as §1

[4] = target: T4, proteins of U2OS cell lysate (Homo sapiens, UniProt Q13561); conditions: DCTN2, Dynactin subunit 2
T4 construct: Proteins enriched by c-ponatinib from U2OS cell lysate; endogenous in cells; host or cells: U2OS cell lysate
T4 sequence (Q13561 whole entry): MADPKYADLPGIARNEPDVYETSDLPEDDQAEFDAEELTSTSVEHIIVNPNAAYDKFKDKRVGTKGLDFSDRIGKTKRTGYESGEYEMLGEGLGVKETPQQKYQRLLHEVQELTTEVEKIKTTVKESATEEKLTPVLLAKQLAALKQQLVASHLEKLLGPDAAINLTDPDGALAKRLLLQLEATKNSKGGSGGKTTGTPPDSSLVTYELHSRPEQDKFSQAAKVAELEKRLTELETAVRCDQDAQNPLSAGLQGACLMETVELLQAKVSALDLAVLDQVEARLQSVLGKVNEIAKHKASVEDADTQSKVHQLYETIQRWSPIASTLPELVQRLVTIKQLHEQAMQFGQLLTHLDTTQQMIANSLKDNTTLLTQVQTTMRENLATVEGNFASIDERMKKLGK
Method in brief: as §1

[5] = target: T5, proteins of U2OS cell lysate (Homo sapiens, UniProt Q15021); conditions: NCAPD2, Condensin complex subunit 1
T5 construct: Proteins enriched by c-ponatinib from U2OS cell lysate; endogenous in cells; host or cells: U2OS cell lysate
Method in brief: as §1

[6] = target: T6, proteins of U2OS cell lysate (Homo sapiens, UniProt P62269); conditions: RPS18, 40S ribosomal protein S18
T6 construct: Proteins enriched by c-ponatinib from U2OS cell lysate; endogenous in cells; host or cells: U2OS cell lysate
Method in brief: as §1

[7] = target: T7, proteins of U2OS cell lysate (Homo sapiens, UniProt P62258); conditions: YWHAE, 14-3-3 protein epsilon
T7 construct: Proteins enriched by c-ponatinib from U2OS cell lysate; endogenous in cells; host or cells: U2OS cell lysate
T7 sequence (P62258 whole entry): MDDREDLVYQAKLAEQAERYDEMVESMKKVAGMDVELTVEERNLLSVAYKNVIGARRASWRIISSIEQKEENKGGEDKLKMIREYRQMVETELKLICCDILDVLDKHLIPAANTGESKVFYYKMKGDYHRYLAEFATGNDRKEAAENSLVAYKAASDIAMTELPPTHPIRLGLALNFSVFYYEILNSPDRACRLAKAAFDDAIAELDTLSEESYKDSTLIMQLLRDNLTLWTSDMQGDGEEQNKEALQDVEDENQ
Method in brief: as §1

[8] = target: T8, proteins of U2OS cell lysate (Homo sapiens, UniProt P22234); conditions: PAICS, Multifunctional protein ADE2
T8 construct: Proteins enriched by c-ponatinib from U2OS cell lysate; endogenous in cells; host or cells: U2OS cell lysate
T8 sequence (P22234 whole entry): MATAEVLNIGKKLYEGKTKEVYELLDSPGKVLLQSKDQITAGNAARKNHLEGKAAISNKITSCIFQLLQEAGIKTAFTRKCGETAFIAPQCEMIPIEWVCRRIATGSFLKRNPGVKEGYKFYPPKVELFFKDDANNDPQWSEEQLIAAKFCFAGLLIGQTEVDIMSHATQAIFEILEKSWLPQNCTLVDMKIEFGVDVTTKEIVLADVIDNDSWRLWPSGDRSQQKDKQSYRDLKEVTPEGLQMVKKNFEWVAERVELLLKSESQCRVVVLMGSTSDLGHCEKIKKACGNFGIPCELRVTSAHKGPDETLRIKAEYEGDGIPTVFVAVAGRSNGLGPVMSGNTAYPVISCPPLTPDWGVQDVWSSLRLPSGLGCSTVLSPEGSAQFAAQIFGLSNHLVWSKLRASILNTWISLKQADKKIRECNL
Method in brief: as §1

[9] = target: T9, proteins of U2OS cell lysate (Homo sapiens, UniProt P0DMV9); conditions: HSPA1B, Heat shock 70 kDa protein 1B
T9 construct: Proteins enriched by c-ponatinib from U2OS cell lysate; endogenous in cells; host or cells: U2OS cell lysate
Method in brief: as §1

[10] = target: T10, proteins of U2OS cell lysate (Homo sapiens, UniProt P78371); conditions: CCT2, T-complex protein 1 subunit beta
T10 construct: Proteins enriched by c-ponatinib from U2OS cell lysate; endogenous in cells; host or cells: U2OS cell lysate
Method in brief: as §1

[11] = target: T11, proteins of U2OS cell lysate (Homo sapiens, UniProt Q14974); conditions: KPNB1, Importin subunit beta-1
T11 construct: Proteins enriched by c-ponatinib from U2OS cell lysate; endogenous in cells; host or cells: U2OS cell lysate
T11 sequence (Q14974 whole entry): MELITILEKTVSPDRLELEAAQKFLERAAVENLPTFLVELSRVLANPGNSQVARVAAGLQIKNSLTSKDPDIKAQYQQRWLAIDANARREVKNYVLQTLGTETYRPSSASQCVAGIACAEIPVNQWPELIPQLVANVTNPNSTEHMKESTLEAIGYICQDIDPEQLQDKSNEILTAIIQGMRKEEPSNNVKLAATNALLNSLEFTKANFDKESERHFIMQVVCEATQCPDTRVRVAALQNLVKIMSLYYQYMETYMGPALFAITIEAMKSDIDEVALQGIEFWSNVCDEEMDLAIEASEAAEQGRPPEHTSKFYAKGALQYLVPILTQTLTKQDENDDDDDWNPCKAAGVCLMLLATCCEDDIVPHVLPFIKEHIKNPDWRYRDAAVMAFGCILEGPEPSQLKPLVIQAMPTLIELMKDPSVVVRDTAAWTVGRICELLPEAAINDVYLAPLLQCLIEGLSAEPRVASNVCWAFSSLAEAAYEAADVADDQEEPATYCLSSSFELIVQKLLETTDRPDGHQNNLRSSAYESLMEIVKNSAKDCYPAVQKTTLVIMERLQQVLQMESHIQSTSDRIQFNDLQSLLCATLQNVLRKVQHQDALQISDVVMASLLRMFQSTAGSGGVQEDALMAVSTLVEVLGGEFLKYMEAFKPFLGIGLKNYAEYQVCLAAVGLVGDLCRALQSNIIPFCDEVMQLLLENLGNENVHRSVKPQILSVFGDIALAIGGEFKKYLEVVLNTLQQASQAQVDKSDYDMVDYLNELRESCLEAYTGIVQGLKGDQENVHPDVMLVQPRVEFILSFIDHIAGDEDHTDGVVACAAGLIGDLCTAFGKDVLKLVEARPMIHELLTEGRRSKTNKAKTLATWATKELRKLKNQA
Method in brief: as §1

[12] = target: T12, proteins of U2OS cell lysate (Homo sapiens, UniProt Q9Y4K4); conditions: MAP4K5, Mitogen-activated protein kinase kinase kinase kinase 5
T12 construct: Proteins enriched by c-ponatinib from U2OS cell lysate; endogenous in cells; host or cells: U2OS cell lysate
T12 sequence (Q9Y4K4 whole entry): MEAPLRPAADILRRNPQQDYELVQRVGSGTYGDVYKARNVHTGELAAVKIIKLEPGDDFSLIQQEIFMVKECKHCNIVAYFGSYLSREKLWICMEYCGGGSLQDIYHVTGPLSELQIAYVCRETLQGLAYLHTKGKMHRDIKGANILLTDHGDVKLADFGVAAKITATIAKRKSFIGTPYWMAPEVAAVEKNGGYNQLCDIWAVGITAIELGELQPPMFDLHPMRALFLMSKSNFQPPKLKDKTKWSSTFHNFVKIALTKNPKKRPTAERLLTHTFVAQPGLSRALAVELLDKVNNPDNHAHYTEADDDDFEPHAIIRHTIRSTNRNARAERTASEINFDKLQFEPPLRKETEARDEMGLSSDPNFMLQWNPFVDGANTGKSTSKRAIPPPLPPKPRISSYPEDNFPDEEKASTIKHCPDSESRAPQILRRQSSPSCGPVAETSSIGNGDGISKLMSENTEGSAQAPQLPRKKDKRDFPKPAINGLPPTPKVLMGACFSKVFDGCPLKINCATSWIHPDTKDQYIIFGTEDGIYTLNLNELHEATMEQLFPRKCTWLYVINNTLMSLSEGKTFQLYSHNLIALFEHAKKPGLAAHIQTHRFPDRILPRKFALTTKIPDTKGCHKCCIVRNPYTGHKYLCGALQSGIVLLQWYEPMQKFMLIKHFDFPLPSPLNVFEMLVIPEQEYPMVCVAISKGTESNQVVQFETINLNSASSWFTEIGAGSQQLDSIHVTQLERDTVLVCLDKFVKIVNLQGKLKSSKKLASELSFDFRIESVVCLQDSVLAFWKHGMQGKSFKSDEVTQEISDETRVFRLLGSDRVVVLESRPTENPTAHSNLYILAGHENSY
Method in brief: as §1

[13] = target: T13, proteins of U2OS cell lysate (Homo sapiens, UniProt P54753); conditions: EPHB3, Ephrin type-B receptor 3
T13 construct: Proteins enriched by c-ponatinib from U2OS cell lysate; endogenous in cells; host or cells: U2OS cell lysate
Method in brief: as §1

[14] = target: T14, proteins of U2OS cell lysate (Homo sapiens, UniProt P26641); conditions: EEF1G, Elongation factor 1-gamma
T14 construct: Proteins enriched by c-ponatinib from U2OS cell lysate; endogenous in cells; host or cells: U2OS cell lysate
Method in brief: as §1

[15] = target: T15, proteins of U2OS cell lysate (Homo sapiens, UniProt P62249); conditions: RPS16, 40S ribosomal protein S16
T15 construct: Proteins enriched by c-ponatinib from U2OS cell lysate; endogenous in cells; host or cells: U2OS cell lysate
Method in brief: as §1

[16] = target: T16, proteins of U2OS cell lysate (Homo sapiens, UniProt O95819); conditions: MAP4K4, Mitogen-activated protein kinase kinase kinase kinase 4
T16 construct: Proteins enriched by c-ponatinib from U2OS cell lysate; endogenous in cells; host or cells: U2OS cell lysate
T16 sequence (O95819 whole entry): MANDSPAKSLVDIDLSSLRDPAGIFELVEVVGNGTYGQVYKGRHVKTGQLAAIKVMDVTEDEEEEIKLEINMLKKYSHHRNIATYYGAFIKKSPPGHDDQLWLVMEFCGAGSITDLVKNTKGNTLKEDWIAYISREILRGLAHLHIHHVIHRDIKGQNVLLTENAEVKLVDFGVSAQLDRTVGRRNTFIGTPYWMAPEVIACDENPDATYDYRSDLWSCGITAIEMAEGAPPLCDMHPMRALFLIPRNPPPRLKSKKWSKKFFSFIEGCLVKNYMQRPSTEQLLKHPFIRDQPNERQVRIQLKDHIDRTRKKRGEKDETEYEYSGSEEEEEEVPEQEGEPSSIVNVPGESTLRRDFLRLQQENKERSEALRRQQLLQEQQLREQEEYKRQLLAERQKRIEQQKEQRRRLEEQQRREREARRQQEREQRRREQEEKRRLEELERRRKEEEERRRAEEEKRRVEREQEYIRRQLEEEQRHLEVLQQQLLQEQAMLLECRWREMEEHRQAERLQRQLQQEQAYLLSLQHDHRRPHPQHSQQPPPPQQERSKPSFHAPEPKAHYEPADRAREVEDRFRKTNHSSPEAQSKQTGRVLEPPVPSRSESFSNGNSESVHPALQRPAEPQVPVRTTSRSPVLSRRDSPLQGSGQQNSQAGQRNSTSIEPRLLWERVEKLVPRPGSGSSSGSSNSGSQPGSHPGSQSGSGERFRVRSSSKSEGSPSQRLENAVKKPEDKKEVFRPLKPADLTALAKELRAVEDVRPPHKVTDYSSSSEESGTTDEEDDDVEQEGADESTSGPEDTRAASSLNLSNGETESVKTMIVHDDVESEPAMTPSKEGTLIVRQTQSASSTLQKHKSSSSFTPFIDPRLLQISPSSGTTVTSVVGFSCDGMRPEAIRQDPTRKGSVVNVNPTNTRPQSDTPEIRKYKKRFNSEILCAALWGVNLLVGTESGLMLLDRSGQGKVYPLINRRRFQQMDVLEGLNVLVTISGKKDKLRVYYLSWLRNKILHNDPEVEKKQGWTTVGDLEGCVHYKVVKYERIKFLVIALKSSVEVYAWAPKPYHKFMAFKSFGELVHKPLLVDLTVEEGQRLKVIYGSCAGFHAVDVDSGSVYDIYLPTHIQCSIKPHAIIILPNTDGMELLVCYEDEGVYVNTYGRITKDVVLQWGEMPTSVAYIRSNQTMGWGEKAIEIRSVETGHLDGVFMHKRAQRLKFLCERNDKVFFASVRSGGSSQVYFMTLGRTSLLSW
Method in brief: as §1

[17] = target: T17, proteins of U2OS cell lysate (Homo sapiens, UniProt Q14680); conditions: MELK, Maternal embryonic leucine zipper kinase
T17 construct: Proteins enriched by c-ponatinib from U2OS cell lysate; endogenous in cells; host or cells: U2OS cell lysate
T17 sequence (Q14680 whole entry): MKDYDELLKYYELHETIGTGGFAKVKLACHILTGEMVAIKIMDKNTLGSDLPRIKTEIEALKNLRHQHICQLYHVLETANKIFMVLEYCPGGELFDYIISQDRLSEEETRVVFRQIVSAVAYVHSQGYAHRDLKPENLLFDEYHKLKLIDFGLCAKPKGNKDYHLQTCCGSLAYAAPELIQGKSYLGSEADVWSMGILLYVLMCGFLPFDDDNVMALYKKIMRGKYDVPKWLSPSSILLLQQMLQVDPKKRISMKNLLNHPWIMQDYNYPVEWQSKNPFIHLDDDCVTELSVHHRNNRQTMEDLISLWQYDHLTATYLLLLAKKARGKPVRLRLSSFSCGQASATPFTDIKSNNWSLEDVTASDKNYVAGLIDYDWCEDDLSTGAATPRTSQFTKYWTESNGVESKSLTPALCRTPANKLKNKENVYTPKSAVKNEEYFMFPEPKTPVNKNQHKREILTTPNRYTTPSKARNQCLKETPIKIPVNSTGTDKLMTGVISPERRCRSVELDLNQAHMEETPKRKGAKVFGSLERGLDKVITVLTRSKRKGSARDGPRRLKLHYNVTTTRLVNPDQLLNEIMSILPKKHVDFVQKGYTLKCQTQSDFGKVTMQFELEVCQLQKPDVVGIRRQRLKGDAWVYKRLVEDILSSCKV
Method in brief: as §1

[18] = target: T18, proteins of U2OS cell lysate (Homo sapiens, UniProt O95232); conditions: LUC7L3, Luc7-like protein 3
T18 construct: Proteins enriched by c-ponatinib from U2OS cell lysate; endogenous in cells; host or cells: U2OS cell lysate
Method in brief: as §1

[19] = target: T19, proteins of U2OS cell lysate (Homo sapiens, UniProt P09493); conditions: captured protein TPM1, Rank 202
T19 construct: Proteins enriched by c-ponatinib from U2OS cell lysate; endogenous in cells; host or cells: U2OS cell lysate
T19 sequence (P09493 whole entry): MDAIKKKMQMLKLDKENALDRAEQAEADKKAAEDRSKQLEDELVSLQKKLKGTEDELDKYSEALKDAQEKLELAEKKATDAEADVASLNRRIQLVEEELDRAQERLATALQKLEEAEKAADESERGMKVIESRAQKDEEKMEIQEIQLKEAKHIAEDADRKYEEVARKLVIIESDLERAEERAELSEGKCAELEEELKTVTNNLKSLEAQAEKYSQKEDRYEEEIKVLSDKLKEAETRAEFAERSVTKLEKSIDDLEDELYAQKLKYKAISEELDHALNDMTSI
Method in brief: as §1

| Structure (SMILES) | Average LFQ PON_WT [1] | Average LFQ PON_WT [2] | Average LFQ PON_WT [3] | Average LFQ PON_WT [4] | Average LFQ PON_WT [5] | Average LFQ PON_WT [6] | Average LFQ PON_WT [7] | Average LFQ PON_WT [8] | Average LFQ PON_WT [9] | Average LFQ PON_WT [10] | Average LFQ PON_WT [11] | Average LFQ PON_WT [12] | Average LFQ PON_WT [13] | Average LFQ PON_WT [14] | Average LFQ PON_WT [15] | Average LFQ PON_WT [16] | Average LFQ PON_WT [17] | Average LFQ PON_WT [18] | Average LFQ intensity [19] |
| --- | --- | --- | --- | --- | --- | --- | --- | --- | --- | --- | --- | --- | --- | --- | --- | --- | --- | --- | --- |
| Cc1ccc(C(=O)Nc2ccc(CN3CCN(C)CC3)c(C(F)(F)F)c2)cc1C#Cc1cnc2cccnn12 [PON] | 21.4215 | 18.8692 | 25.5794 | 23.2725 | 21.331 | 21.0717 | 21.3893 | 21.2772 | 24.1054 | 24.048 | 23.6067 | 19.9263 | 21.3076 | 25.0677 | 20.8259 | 26.8473 | 24.1941 | 20.3652 |  |
| Cc1ccc(C(=O)Nc2ccc(CN3CCN(CCCN)CC3)c(C(F)(F)F)c2)cc1C#Cc1cnc2cccnn12 [c-ponatinib, reference compound] |  |  |  |  |  |  |  |  |  |  |  |  |  |  |  |  |  |  | 21.8321 |
